Test results from patent US11439707B2, “Hypocrellin derivative substituted both in a peri-position and in 2-position by amino, preparation method, and application thereof” (priority 2017, dated 2022).

How the values were obtained:
[1] = absorption spectrum (maximum absorption wavelength, molar extinction coefficient); type: physicochemical
[2] = singlet oxygen efficiency test, reference rose bengal; type: physicochemical

Row | SMILES | maximum absorption wavelength [1] [nm] | molar extinction coefficient [1] | singlet oxygen yield [2] [%]
1 | COCCOCCOCCOCCOCCOCCOCCOCCOCCNC(=O)C1CCC(CNc2c3c4c5c(c(OC)c(=O)c6c(O)cc(OC)c(c7c(OC)cc(NCC8CCC(C(=O)NCCOCCOCCOCCOCCOCCOCCOCCOCCOC)CC8)c(c2=O)c74)c65)C(C(C)=O)C(C)=C3)CC1 (stereo not drawn) [HB-13c-NH-PEG8] | 630 | 33,500 M^−1cm^−1 | 39
2 | COc1c2c3c4c(c(NC(CC(N)=O)C(=O)O)c(=O)c5c(O)cc(OC)c(c6c(OC)cc(NC(CC(N)=O)C(=O)O)c(c1=O)c63)c54)C=C(C)C2C(C)=O (stereo not drawn) [HB-26d] | 622 | 20,500 M^−1cm^−1 | 16
3 | COc1c2c3c4c(c(NCC(=O)O)c(=O)c5c(O)cc(OC)c(c6c(OC)cc(NCCCC(=O)O)c(c1=O)c63)c54)C=C(C)C2C(C)=O (stereo not drawn) [HB-43d] | 623 | 26,500 M^−1cm^−1 | 24
4 | COCCOCCOCCOCCOCCOCCOCCOCCOCCOCCOCCOCCOCCN1CCC(CNc2c3c4c5c(c(OC)c(=O)c6c(NCC7CCN(CCOCCOCCOCCOCCOCCOCCOCCOCCOCCOCCOCCOCCOC)CC7)cc(OC)c(c7c(OC)cc(O)c(c2=O)c74)c65)C(C(C)=O)C(C)=C3)CC1 (stereo not drawn) [HB-32d-PEG12] | 632 | 31,500 M^−1cm^−1 | 33
5 | COc1c(O)c2c(=O)cc(OC)c3c4c(OC)cc(=O)c5c(NCCS(=O)(=O)OC)c(NCCS(=O)(=O)OC)c6c(c(c1C(C(C)=O)C(C)=C6)c23)c54 (stereo not drawn) [HB-12a] | 621 | 23,500 M^−1cm^−1 | 20
6 | COCCOCCC(=O)OCCOCCNc1c(NCCOCCOC(=O)CCOCCOC)c2c(=O)cc(OC)c3c4c(OC)cc(=O)c5c(O)c(OC)c6c(c(c1C=C(C)C6)c23)c54 [HC-1a-PEG1] | 622 | 30,500 M^−1cm^−1 | 32
7 | COCCOCCNC(=O)C1CCC(CNc2c(NCC3CCC(C(=O)NCCOCCOC)CC3)c3c(=O)cc(OC)c4c5c(OC)cc(=O)c6c(O)c(OC)c7c(c(c2C=C(C)C7)c34)c65)CC1 (stereo not drawn) [HC-13a-NH-PEG1] | 624 | 30,000 M^−1cm^−1 | 32
8 | COc1c(NC2CCC(C(=O)O)CC2)c2c(=O)cc(OC)c3c4c(OC)cc(=O)c5c(O)c(NC6CCC(C(=O)O)CC6)c6c(c(c1C(C(C)=O)C(C)=C6)c23)c54 (stereo not drawn) [HB-14b] | 623 | 27,000 M^−1cm^−1 | 24
9 | COc1c(O)c2c(=O)cc(OC)c3c4c(OC)cc(=O)c5c(NCCOC(=O)N6CC(=O)NC(=O)C6)c(NCCOC(=O)N6CC(=O)NC(=O)C6)c6c(c(c1C(C(C)=O)C(C)=C6)c23)c54 (stereo not drawn) [HB-40a] | 620 | 31,000 M^−1cm^−1 | 30
10 | COc1c(O)c2c(=O)cc(OC)c3c4c(OC)cc(=O)c5c(NC6CCC(O)CC6)c(NC6CCC(O)CC6)c6c(c(c1C(C(C)=O)C(C)=C6)c23)c54 (stereo not drawn) [HB-17a] | 617 | 25,000 M^−1cm^−1 | 22
11 | COc1c(O)c2c(=O)cc(OC)c3c4c(OC)cc(=O)c5c(NC6CCC(O)C6)c(NC6CCC(O)C6)c6c(c(c1C(C(C)=O)C(C)=C6)c23)c54 (stereo not drawn) [HB-20a] | 624 | 24,500 M^−1cm^−1 | 20
12 | COc1c2c3c4c(c(NCC(=O)O)c(=O)c5c(NCCCC(=O)O)cc(OC)c(c6c(OC)cc(O)c(c1=O)c63)c54)C=C(C)C2C(C)=O (stereo not drawn) [HB-43c] | 626 | 26,500 M^−1cm^−1 | 30
13 | COc1c2c3c4c(c(NCCCC(=O)NCCCCS(=O)(=O)O)c(=O)c5c(O)cc(OC)c(c6c(OC)cc(NCCCC(=O)NCCCCS(=O)(=O)O)c(c1=O)c63)c54)C=C(C)C2 [HC-8d-NH—C4-SO3H] | 626 | 30,500 M^−1cm^−1 | 32
14 | COc1c(NC2CCC(O)CC2)c2c(=O)cc(OC)c3c4c(OC)cc(=O)c5c(O)c(NC6CCC(O)CC6)c6c(c(c1C(C(C)=O)C(C)=C6)c23)c54 (stereo not drawn) [HB-17b] | 620 | 25,500 M^−1cm^−1 | 20
15 | COCCOCCC(=O)OC1CCC(Nc2c(NC3CCC(OC(=O)CCOCCOC)CC3)c3c(=O)cc(OC)c4c5c(OC)cc(=O)c6c(O)c(OC)c7c(c(c2C=C(C)C7C(C)=O)c34)c65)CC1 (stereo not drawn) [HB-17a-PEG1] | 622 | 30,500 M^−1cm^−1 | 30
16 | COc1c2c3c4c(c(NCc5ccccn5)c(=O)c5c(NCc6ccccn6)cc(OC)c(c6c(OC)cc(O)c(c1=O)c63)c54)C=C(C)C2C(C)=O (stereo not drawn) [HB-38c] | 628 | 20,000 M^−1cm^−1 | 18
17 | COc1c(NCC2CCC(C(=O)NCCCCS(=O)(=O)O)CC2)c2c(=O)cc(OC)c3c4c(OC)cc(=O)c5c(O)c(NCC6CCC(C(=O)NCCCCS(=O)(=O)O)CC6)c6c(c(c1CC(C)=C6)c23)c54 (stereo not drawn) [HC-13b-C4-SO3H] | 622 | 30,000 M^−1cm^−1 | 32

Row | SMILES | maximum absorption wavelength [1] [nm] | molar extinction coefficient [1] | singlet oxygen yield [2] [%]
18 | COc1c(NCCCC(=O)NCCCC[N+](C)(C)C)c2c(=O)cc(OC)c3c4c(OC)cc(=O)c5c(O)c(NCCCC(=O)NCCCC[N+](C)(C)C)c6c(c(c1CC(C)=C6)c23)c54 [HC-8b-NH—C4-N^+] | 626 | 30,500 M^−1cm^−1 | 32
19 | COc1c(NCc2ccccn2)c2c(=O)cc(OC)c3c4c(OC)cc(=O)c5c(O)c(NCc6ccccn6)c6c(c(c1C(C(C)=O)C(C)=C6)c23)c54 (stereo not drawn) [HB-38b] | 621 | 18,500 M^−1cm^−1 | 16
20 | COCCOC(=O)C1CCC(CNc2c(NCC3CCC(C(=O)OCCOC)CC3)c3c(=O)cc(OC)c4c5c(OC)cc(=O)c6c(O)c(OC)c7c(c(c2C=C(C)C7)c34)c65)CC1 (stereo not drawn) [HC-13a-PEG1] | 622 | 30,000 M^−1cm^−1 | 32
21 | COc1c(O)c2c(=O)cc(OC)c3c4c(OC)cc(=O)c5c(NC6CCCC(C(=O)O)C6)c(NC6CCCC(C(=O)O)C6)c6c(c(c1C(C(C)=O)C(C)=C6)c23)c54 (stereo not drawn) [HB-15a] | 625 | 27,000 M^−1cm^−1 | 25
22 | COc1c(O)c2c(=O)cc(OC)c3c4c(OC)cc(=O)c5c(NCCCCCC(=O)O)c(NCCCCCC(=O)O)c6c(c(c1CC(C)=C6)c23)c54 [HC-9a] | 620 | 26,500 M^−1cm^−1 | 26
23 | COCCOCCC(=O)OCCNc1c(NCCOC(=O)CCOCCOC)c2c(=O)cc(OC)c3c4c(OC)cc(=O)c5c(O)c(OC)c6c(c(c1C=C(C)C6C(C)=O)c23)c54 (stereo not drawn) [HB-2a-PEG1] | 620 | 30,500 M^−1cm^−1 | 30
24 | COc1c2c3c4c(c(NCC5CCC(C(=O)NCCCCCC[P+](c6ccccc6)(c6ccccc6)c6ccccc6)CC5)c(=O)c5c(NCC6CCC(C(=O)NCCCCCC[P+](c7ccccc7)(c7ccccc7)c7ccccc7)CC6)cc(OC)c(c6c(OC)cc(O)c(c1=O)c63)c54)C=C(C)C2 (stereo not drawn) [HC-13c-NH—C6-PPh3+] | 632 | 33,500 M^−1cm^−1 | 38
25 | COc1c2c3c4c(c(NCCNCCOCCOCCOCCOCCO)c(=O)c5c(NCCNCCOCCOCCOCCOCCO)c(Br)c(OC)c(c6c(OC)cc(O)c(c1=O)c63)c54)C=C(C)C2C(C)=O (stereo not drawn) [HB-5c-Br-PEG4] | 630 | 31,500 M^−1cm^−1 | 36
26 | COCCOC(=O)CCCNc1c(NCCCC(=O)OCCOC)c2c(=O)cc(OC)c3c4c(OC)cc(=O)c5c(O)c(OC)c6c(c(c1C=C(C)C6C(C)=O)c23)c54 (stereo not drawn) [HB-8a-PEG1] | 621 | 30,500 M^−1cm^−1 | 28
27 | COCCOCCOCCOCCOCCOCCOC(=O)C1CCCC(Nc2c3c4c5c(c(OC)c(=O)c6c(NC7CCCC(C(=O)OCCOCCOCCOCCOCCOCCOC)C7)cc(OC)c(c7c(OC)cc(O)c(c2=O)c74)c65)C(C(C)=O)C(C)=C3)C1 (stereo not drawn) [HB-15d-PEG6] | 630 | 32,500 M^−1cm^−1 | 32
28 | COc1c2c3c4c(c(NC(CO)C(=O)O)c(=O)c5c(O)cc(OC)c(c6c(OC)cc(NC(CO)C(=O)O)c(c1=O)c63)c54)C=C(C)C2C(C)=O (stereo not drawn) [HB-23d] | 621 | 21,500 M^−1cm^−1 | 18
29 | CCNc1c2c3c4c(c(OC)c(=O)c5c(NC6CCCC6)cc(OC)c(c6c(OC)cc(O)c(c1=O)c63)c54)C(C(C)=O)C(C)=C2 (stereo not drawn) [HB-44d] | 622 | 21,500 M^−1cm^−1 | 21
30 | COCCOCCOCCOCCOCCOCCOCCOCCOCCOCCOCCOCCOCCC(=O)OCCNc1c2c3c4c(c(OC)c(=O)c5c(O)cc(OC)c(c6c(OC)cc(NCCOC(=O)CCOCCOCCOCCOCCOCCOCCOCCOCCOCCOCCOCCOCCOC)c(c1=O)c63)c54)CC(C)=C2 [HC-2c-PEG12] | 630 | 32,500 M^−1cm^−1 | 34
31 | COc1c2c3c4c(c(NCCO)c(=O)c5c(O)cc(OC)c(c6c(OC)cc(NCCO)c(c1=O)c63)c54)C=C(C)C2 [HC-2d] | 625 | 28,500 M^−1cm^−1 | 34
32 | COc1c2c3c4c(c(NCc5ccccn5)c(=O)c5c(O)cc(OC)c(c6c(OC)cc(NCc7ccccn7)c(c1=O)c63)c54)C=C(C)C2C(C)=O (stereo not drawn) [HB-38d] | 624 | 18,500 M^−1cm^−1 | 17
33 | COC(=O)C(CO)Nc1c(O)c2c(=O)cc(OC)c3c4c(OC)cc(=O)c5c(NC(CO)C(=O)OC)c(OC)c6c(c(c1C=C(C)C6C(C)=O)c23)c54 (stereo not drawn) [HB-24b] | 621 | 21,500 M^−1cm^−1 | 20
